Key:
[1] = biological target: T1, TRKA (Homo sapiens, UniProt P04629); assay: FRET-based Z'-Lyte kinase assay; assay type: biochemical; details: mean ± SD, read-out: IC50 TRKA kinase inhibition
T1 construct: purchased Invitrogen

[2] = biological target: TRKA-G667C (Homo sapiens, UniProt P04629, G667C); assay: FRET-based Z'-Lyte kinase assay; assay type: biochemical
Experimental: (§1) TRKA/B/C and the Z′-Lyte Kinase Assay Kit were purchased from Invitrogen. Assays were performed according to the manufacturer’s instructions. […] The solutions of the compounds were diluted from 10^−10 M to […] in DMSO and a 400 μM solution of the compound was prepared with 4 μL of the solution of the compound dissolved in 96 μL water. […] For each assay, 10 μL of a kinase solution, including 2.5 μL of the compound solution, 5 μL of the kinase/peptide mixture, and 2.5 μL of the ATP solution was prepared. The plate wells were mixed thoroughly and incubated for 1 h at room temperature (rt). Then 5 μL of the development solution was added to each well and the plate was incubated for 1 h at rt; the […] were cleaved in this time. Finally, 5 μL of stop reagent was added to stop the reaction. For the control setting, 5 μL of the phosphopeptide solution instead of the kinase/peptide mixture was used as a 100% phosphorylation control. […] The plate was measured on an EnVision Multilabel Reader (Perkin-Elmer). Curve fitting and data presentation was performed using GraphPad Prism, version 5.0. Every experiment was repeated at least 2 times.

[3] = biological target: T2, TRKB (Homo sapiens, UniProt Q16620); assay: FRET-based Z'-Lyte kinase assay; assay type: biochemical; details: mean ± SD, read-out: IC50 TRKB kinase inhibition
T2 construct: purchased Invitrogen
Experimental: as §1

[4] = biological target: T3, TRKC (Homo sapiens, UniProt Q16288); assay: FRET-based Z'-Lyte kinase assay; assay type: biochemical; details: mean ± SD, read-out: IC50 TRKC kinase inhibition
T3 construct: purchased Invitrogen
Experimental: as §1

[5] = tested on: parental BaF3 cells (phospho-ERK); assay: Western blot in parental BaF3 cells (Figure S1); assay type: cell-based, Murine; details: parental BaF3 cells driven by IL-3 (Figure S1)
Experimental: Cells were treated with various concentrations of each tested compound for a designated time. Then cells were lysed using 1 × SDS sample lysis buffer (CST recommended) with protease and phosphatase inhibitors. […] The films were blocked with 5% fat-free milk in TBS solution containing 0.5% Tween-20 for 4 h at room temperature, then incubated with the corresponding primary antibody (1:1000–1:200) overnight at 4 °C. After washing with TBST, HRP-conjugated secondary antibody was incubated for 2 h. The protein signals were visualized by ECL Western Blotting Detection Kit (Thermo Scientific, Waltham, MA, USA), and detected with Amersham Imager 600 system (GE, Boston, MA, USA).

[6] = tested on: BaF3 CD74-TRKA; assay: BaF3 cell proliferation, CCK-8 assay; details: Mus musculus, BaF3, 72 h, read-out: IC50 (nM ± SD) WT CD74-TRKA
Experimental: (§2) Murine BaF3 cells were purchased from JRCB cell bank. The BaF3 cell lines, which stably express natively-fused TRKA/B/C or various point mutants, were self-established by following previously described procedures. Briefly, NTRK genes were totally synthesized and cloned into pCDNA3.1(+) vectors (Invitrogen, Carlsbad, CA, USA). […] Stable strains were established by selection of cells 2 weeks post-transfection with 800 μg/mL G418 (Merck, Whitehouse Station, NJ) and further selection after the withdrawal of interleukin-3 (IL-3, R&D) for 2 weeks. All of BaF3 stable cell lines were verified by DNA sequencing, protein expression and anti-proliferation activity against positive drugs. […] All cells were grown at 37 °C in a humidified 5% CO2 atmosphere.
(§3) Cells were placed in 96-well plates (5000~8000/well) in complete medium. […] IC50 values were calculated by concentration-response curve fitting using GraphPad Prism 5.0 software. Each IC50 value is expressed as mean ± SD.

[7] = tested on: BaF3 ETV6-TRKB; assay: BaF3 cell proliferation, CCK-8 assay; details: Mus musculus, BaF3, 72 h, read-out: IC50 (nM ± SD) WT ETV6-TRKB
Experimental: as §2, §3

[8] = tested on: BaF3 EML4-TRKC; assay: BaF3 cell proliferation, CCK-8 assay; details: Mus musculus, BaF3, 72 h, read-out: IC50 (nM ± SD) WT EML4-TRKC
Experimental: as §2, §3

[9] = tested on: BaF3 ETV6-TRKC; assay: BaF3 cell proliferation, CCK-8 assay; details: Mus musculus, BaF3, 72 h, read-out: IC50 (nM ± SD) WT ETV6-TRKC
Experimental: as §2, §3

[10] = tested on: BaF3 ETV6-TRKC-G623R; assay: BaF3 cell proliferation, CCK-8 assay; details: Mus musculus, BaF3, 72 h, read-out: IC50 (nM ± SD) Solvent Front ETV6-TRKC-G623R
Experimental: as §2, §3

[11] = tested on: BaF3 ETV6-TRKB-F633L; assay: BaF3 cell proliferation, CCK-8 assay; details: Mus musculus, BaF3, 72 h, read-out: IC50 (nM ± SD) Gatekeeper ETV6-TRKB-F633L
Experimental: as §2, §3

[12] = tested on: BaF3 ETV6-TRKC-F617L; assay: BaF3 cell proliferation, CCK-8 assay; details: Mus musculus, BaF3, 72 h, read-out: IC50 (nM ± SD) Gatekeeper ETV6-TRKC-F617L
Experimental: as §2, §3

[13] = tested on: BaF3 ETV6-TRKB-G709C; assay: BaF3 cell proliferation, CCK-8 assay; details: Mus musculus, BaF3, 72 h, read-out: IC50 (nM ± SD) xDFG ETV6-TRKB-G709C
Experimental: as §2, §3

[14] = tested on: BaF3 ETV6-TRKC-G696C; assay: BaF3 cell proliferation, CCK-8 assay; details: Mus musculus, BaF3, 72 h, read-out: IC50 (nM ± SD) xDFG ETV6-TRKC-G696C
Experimental: as §2, §3

With `Cc1c(C#Cc2cnc3cnc(-c4ccc(N)cc4)cn23)cccc1C(=O)Nc1cc(CN2CCN(C)CC2)cc(C(C)C)c1` [JND4135, 3-((6-(4-aminophenyl)imidazo[1,2-a]pyrazin-3-yl)ethynyl)-N-(3-isopropyl-5-((4-methylpiperazin-1-yl)methyl)phenyl)-2-methylbenzamide] the IC50 [1] was 2.79 ± 1.17 nM, the “fold stronger kinase inhibition of TRKA-G667C than TRKA-WT” value [2] was 3.3 fold and the IC50 ([2]; Z'-Lyte, mean ± SD, read-out: IC50 TRKA-G667C kinase inhibition) was 0.83 ± 0.06 nM. The IC50 [3] was 3.19 ± 1.76 nM, the IC50 [4] was 3.01 ± 0.43 nM and the “effect on phospho-ERK levels” value [5] was “increased the phospho-ERK levels”. The IC50 [6] was 10.4 ± 3.2 nM, the IC50 [7] was 23.1 ± 5.9 nM and the IC50 [8] was 13.2 ± 2.6 nM. For the same compound, the IC50 [9] was 10.4 ± 4 nM, the IC50 [10] was 9.4 ± 2.6 nM and the IC50 [11] was 178 ± 4.3 nM. The IC50 [12] was 37.3 ± 14 nM, the IC50 [13] was 18.7 ± 2.9 nM and the IC50 [14] was 1.3 ± 0.7 nM.
